In publication doi:10.1101/2025.07.05.663305v1, “Structure of Photosystem I with SOD reveals coupling between energy conversion and oxidative stress protection” (biorxiv, 2025):

Molecular target: T1, FCPb (Chromera velia, UniProt A0A0G4ID45)
T1 construct: gene Cvel_13255; native PSI-SOD-FCPI supercomplex purified from cells; contacts PsaD, PsaL, PsaA2 and SOD1
T1 sequence (A0A0G4ID45 1-293): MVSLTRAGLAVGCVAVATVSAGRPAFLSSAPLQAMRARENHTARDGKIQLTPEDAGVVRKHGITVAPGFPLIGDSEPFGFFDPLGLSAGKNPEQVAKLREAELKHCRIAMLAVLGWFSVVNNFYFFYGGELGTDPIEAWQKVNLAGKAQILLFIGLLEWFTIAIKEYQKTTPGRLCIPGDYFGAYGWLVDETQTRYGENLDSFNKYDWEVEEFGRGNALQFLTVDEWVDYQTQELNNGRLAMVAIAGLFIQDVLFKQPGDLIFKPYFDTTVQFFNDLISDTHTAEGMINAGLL
Assay: cryo-EM structure
Format: binding
Settings: four sites 301, 302, 303, 305

Question: For `CC(/C=C/C=C(C)/C=C/[C@@]12O[C@]1(C)C[C@@H](O)CC2(C)C)=C\C=C\C=C(C)\C=C\C=C(C)\C=C\[C@@]12O[C@]1(C)C[C@@H](O)CC2(C)C` [violaxanthin], which cryo-EM structure is on record?
Answer: FCPb binds ten Chls a and four violaxanthins
